From patent US8523975B2, “Salts of mineral nutrients stabilized with amino acids and/or ammonium salt, products and food supplements that contain them and procedures for obtaining same” (priority 2005, dated 2013)

Columns and labels:
[1] = Comparative data of solubility in water; conditions: 25° C., solubility expressed as iron
[2] = reference data (Merck Index XII / manufacturer Bartek Inc.); cited from earlier work

Structure (SMILES) | Fe++ (ferrous) allowed per liter of water [1] | Solubility in water at 25° C. (non-stabilized salt) [2]
O=C([O-])/C=C/C(=O)[O-].[Fe+2] [Ferrous fumarate] | 0.460 gr Fe++ per liter of water | 1.4 grams per liter
O.O.O.O=C([O-])/C=C/C(=O)[O-].[Ca+2] [Calcium Fumarate 3H2O] | – | 1.22 grams per liter
